Article PMC11132046, “A Natural Peptide from A Traditional Chinese Medicine Has the Potential to Treat Chronic Atrophic Gastritis by Activating Gastric Stem Cells” (Advanced Science, 2024)
pIC50: −log10 of the molar value. Entries after “also recorded” stand apart in the source; their conditions may differ. Where no end group is shown, it is not given here.

Key:
gastric organoids = assay: Inhibition of PEEPA-induced organoid growth by pathway inhibitors; type: cell-based, mouse
Procedure: For JAK‐Stat, MEK1 and EGFR inhibition, organoid cultures were respectively treated with Ruxotilinib (15 µM, Selleck, #s1039), U0126 (20 µM, Selleck, #s1102) and Afatinib (1 µM, Selleck, #s1011). The inhibitor was prepared following the manufacturer's instruction.

[1] = cited from earlier work
Text: Herein, by analyzing AG model mice and patient samples with genetic tracing, organoid cultures, and RNA‐seq, we uncovered GSC defects as a critical AG pathogenic factor, associated with decreased signaling of EGF, an important GSC niche molecule. […] We wanted to test their therapeutic effect on AG model mice generated with n‐methyl‐n‐nitro‐n‐nitrosoguanidine (MNNG) and ranitidine (Figure 1A).

AG model mice = assay: AG mouse model (MNNG + ranitidine): histology and histopathology scoring; type: in vivo; conditions: comparison Moludan, Sijunzi decoction, berberine
Procedure: (§1) For establishment of a mouse model of atrophic gastritis, normal mice had free access to water containing N‐methyl‐N‐nitro‐N‐nitrosoguanidine (MNNG, […]). Moreover, the mice were given 400 µL of ranitidine (8 mg mL^−1) in solution at a dose of 150 mg kg^−1 daily. After 20 weeks, the mice were euthanized and examined.
(§2) Periplaneta americana insects were cultivated in an industrialized facility and the ethanol extract of (PEEPA) was prepared with a standardized method, which was dissolved in the vehicle containing water, 15% glycerol and 0.2% potassium sorbate. PEEPA‐derived peptides (PEEPA‐P5) were dissolved to 500 ng mL^−1 in water for in vitro experiments and to 1 mg mL^−1 for in vivo experiments. Mice were administrated with PEEPA, PEEPA‐P5, or vehicle through oral gavage daily for 2 or 4 weeks.
For murine gastritis samples, histologic scoring was blindly done following standard criteria. In brief, the oxyntic atrophy scoring was determined by the absence of parietal and chief cells in mucosa and the gastritis histology index has three categories, inflammation, epithelial defects, and oxyntic atrophy. A larger score represents a more severe gastritis.

[2] = system: EGFR, ERKs, Stat1, Akt1, Stat3 in GES-1 cells; assay: Western blot of EGFR downstream signaling in GES-1 cells; type: cell-based, human; conditions: EGF 0.4 µM
Procedure: Western Blot: Tissue proteins were isolated using T-PER Tissue Protein Extraction Reagent (Thermo Fisher, #78510). Proteins of cultured cells were extracted using RIPA lysis buffer supplemented with 1 mM PMSF, […] pepstatin, leupeptin, and aprotonin. Equal amounts of total proteins were subjected to SDS-PAGE and transferred to PVDF membrane (Millipore). The primary antibodies include: p-Stat1 […]
(§3) results were visualized and quantified using the FluoChem M system (ProteinSimple).
Cell culture and cell viability assay: Human gastric normal epithelial cell line GES-1 was cultured in DMEM medium containing 10% fetal bovine serum and 1% pencillin- […]
streptomycin at 37℃ with 5% CO2. […]
(§4) TRIzol reagent. cDNA was reverse transcribed from 500 ng RNA by PrimeScript RT […]
(§5) Light Cycler 480. The sequences of primers are as follows: Gastrin-F: 5’- GGACAGGGACCAATGAGG-3’; Gastrin-R: 5’-
(§6) -3’; SST-F: 5’-ACCGGGAAAAGGAACTGG-3’;
(§7) SST-R: 5’-TTGCTGGGTTCGAGTTGGC-3’; Muc5ac-F: 5’-
(§8) AGCCTAGCCACCACCTTAG-3’; TFF1-F: 5’-[…]-3’;
(§9) TFF1-R: 5’-[…]-3’; TFF2-F: 5’- TGCTCTGGTAGAGGGCGAG-3’; TFF2-R: 5’-CGAGCTAGAGTCAAAGAG-3’;
(§10) Spdef-F: 5’-GGAGGAGACTCTTCTGAAG-3’; Spdef-R: 5’-
(§11) -3’. For human genes, hPCNA-F: 5’-
(§12) CAGCGGTAGGTGTCGAAGC-3’; hTFF2-F: 5’-[…]-
(§13) 3’; hTTF2-R: 5’-[…]-3’; hMuc5ac-F: 5’-
(§14) GCGCACAGAGGATGACAGT-3’; hATP4b-F: 5’-[…]-
(§15) 3’; hATP4b-R: 5’-[…]-3’; hGastrin-F: 5’-
GCCCCTGTACCTAAGGGTG-3’; hAxin2-F: 5’- […]

[3] = system: EGFR-Stat1 and EGFR-ERK signaling in AG organoids; assay: Western blot of EGFR signaling in AG patient-derived gastric organoids; type: cell-based, human; conditions: organoids from AG patients
Procedure: (§16) The gastric antrum of mice was harvested and the middle part was cut open. After cleaning in PBS containing 1% pencillin‐streptomycin (PS) for several times, the food residue and other impurities were completely removed. The gastric gland epithelial layer was separated from the muscle layer with forceps under the stereoscope. The epithelial layer was cut into 2.5 mm long fragments, which were digested in 2.5 mM EDTA/DPBS at 4 °C for 1 h. The gland fragments were filtered through a 70 µm strainer (Thermo Fisher), washed with cold DPBS buffer, and centrifuged at 1000 rpm for 5 min. Afterward, the gland sediments were suspended in growth factor reduced phenol‐free Matrigel (Corning) and seeded into 48‐well plate. […] At different time points (Day 1, 3, 5, and 7), the organoids were observed under inverted microscope, and the organ diameter and bud numbers were measured to determine the levels of cell proliferation. […]
as §3
(§17) Cell culture and cell viability assay: Human gastric normal epithelial cell line GES-1 was cultured in DMEM medium containing 10% fetal bovine serum and 1% pencillin-streptomycin at 37℃ with 5% CO2. […] After 3 days, substrate tetrazolium salt was added to each sample and incubated at 37℃ for 2 hrs and the absorbance at 450 nm was measured using BioTeck. […]

[4] = no reference given; cited from earlier work
Text: Moreover, PEEPA‐P5 has unique properties compared to EGF. […] Third, PEEPA‐induced ERK and Stat1 activation is much slower.

[5] = system: EGFR-Stat1 and EGFR-ERK signaling in NAG organoids; assay: Western blot of EGFR signaling in NAG patient-derived gastric organoids; type: cell-based, human; conditions: organoids from NAG patients
Procedure: as §16, §3, §17

[6] = Retention / stability in murine stomach (P5-fluorescein); type: in vivo
[7] = system: liver and kidney of AG model mice; assay: Body weight and liver/kidney histology in AG model mice; type: in vivo, mouse; conditions: PEEPA-P5; H&E, representative of three mice
Procedure: as §1, §2

GES-1 cells = assay: Cell viability assay (CCK-8); type: cell-based, human
Procedure: Cell culture and cell viability assay: Human gastric normal epithelial cell line GES-1 was cultured in DMEM medium containing 10% fetal bovine serum and 1% pencillin-streptomycin at 37℃ with 5% CO2. For cell viability assay, Cell Counting Kit-8 (CCK-8) was purchased from KeyGEN BioTECH Corp., Ltd. The cells were cultured in 96-wells plate and PEEPA-P5 was added in each well with different concentrations. After 3 days, substrate tetrazolium salt was added to each sample and incubated at 37℃ for 2 hrs and the absorbance at 450 nm was measured using BioTeck. […]
as §4, §5, §6, §7, §8, §9, §10, §11, §12, §13, §14, §15
GCCCCTGTACCTAAGGGTG-3’; hAxin2-F: 5’-
RNA sequencing: The gastric muscle layer was removed under the stereoscope and the […]

Question: For `CN(C)C/C=C/C(=O)Nc1cc2c(Nc3ccc(F)c(Cl)c3)ncnc2cc1O[C@H]1CCOC1` [afatinib], which “effect on PEEPA-induced organoid growth” value (gastric organoids; EGFR inhibitor afatinib 1 µM, mean ± SD, n=3) is on record?
Answer: blocked the pro‐growth effect of PEEPA on gastric organoids

Question: With `COc1ccc2cc3[n+](cc2c1OC)CCc1cc2c(cc1-3)OCO2` [berberine, reference compound] as the molecule, how does the “reported therapeutic effects on AG” value ([1]; ref [16]) read?
Answer: therapeutic effects on AG

Question: What about the “restoration of gland structure, gastritis histology index and oxyntic atrophic score (compared with PEEPA)” value (AG model mice) of the same molecule?
Answer: only PEEPA restored the gastric gland structure

Question: For “EGF: GSC niche molecule; EGF protein used as comparison”, which “downstream signaling activated by EGF” value [2] is on record?
Answer: activates ERK, Akt1, and Stat1/3 signaling

Question: And the “secretion of defensin 3” value ([1]; ref [15])?
Answer: promotes secretion of defensin 3

Question: And the “sensitivity to EGF, AG organoids” value [3]?
Answer: organoids from AG patients are insensitive

Question: What about the “stability in acidic stomach environment” value [4] of the same molecule?
Answer: instability of EGF in acidic stomach environment

Question: And the “sensitivity to EGF, NAG organoids” value [5]?
Answer: organoids from NAG patients are highly sensitive to EGF

Question: For `N#CC(=C(/N)Sc1ccccc1N)/C(C#N)=C(/N)Sc1ccccc1N` [U0126], which “effect on PEEPA-induced organoid growth” value (gastric organoids; ERK inhibitor U0126 20 µM, mean ± SD, n=3) is on record?
Answer: suppressed PEEPA‐induced organoid growth

Question: Which “stability in the acidic environment of the stomach” value ([6]; inferred from retention of P5-fluorescein in mouse stomach) does the source give for PAAEPVPLVKQD [PEEPA-P5] here?
Answer: relatively stable in the acidic environment of the stomach

Question: And the “retention time in the stomach” value ([6]; mouse, oral gavage, measured using P5-fluorescein (PEEPA-P5-FITC), fluorescence at different time points)?
Answer: 3.09 h

Question: What about the “effect on liver or kidney” value [7] of the same molecule?
Answer: little effect on the kidney or liver structure; also recorded: no obvious effect on the liver or kidney

Question: What about the pIC50 (GES-1 cells) of the same molecule?
Answer: 3.55

Question: And the “toxicity towards GES-1 cells” value (GES-1 cells; CCK-8, 3 days)?
Answer: low cell toxicity

Question: With `N#CC[C@H](C1CCCC1)n1cc(-c2ncnc3[nH]ccc23)cn1` [Ruxo, ruxolitinib] as the molecule, how does the “effect on PEEPA-induced organoid growth and differentiation” value (gastric organoids; Jak inhibitor Ruxo 15 µM, n=6 (growth), n=3 (qPCR)) read?
Answer: impeded PEEPA‐induced organoid growth and differentiation

Question: What about the “expression of differentiation markers in gastric organoids” value (gastric organoids; Ruxo, qPCR, mean ± SD, n=3) of the same molecule?
Answer: suppressed the expression of differentiation markers
